Results on one compound are retold here after patent US20210008175A1, “BACTERIOPHAGE LYSIN AND ANTIBIOTIC COMBINATIONS AGAINST GRAM POSITIVE BACTERIA” (priority 2012, published 2021).

SMILES strings stand for the structures. Converted amounts (≈) assume the structure as drawn. Read-outs that look alike come from different tables or passages of the source.

The subject of assay [1] is S. aureus. In words: Murine bacteremia model, survival. The assay is classed as in vivo, BALB/c mice. The conditions noted are these: high challenge (10^9 CFU MRSA MW2), dosing at 2 hours; vancomycin 110 mg/kg twice daily, PlySs2 5.25 mg/kg (FIG. 27E).
Assay [2] has as its system MRSA Staphylococcus aureus strain (MW2). In words: microbe, parasite or virus in culture. The assay is classed as cell-based. The conditions noted are these: for MIC: Staphylococcus aureus, MRSA, 600 h.
Assay [3] has as its system S. aureus. As to the kind of experiment: Cell envelope binding of BODIPY-fluorescein-labeled antibiotics. It counts as cell-based. As for the experimental part:
As a complement to the synergy studies, daptomycin and vancomycin cell envelope-binding was examined using BODIPY-fluorescein-labeled antibiotics in the presence and absence of sub-MIC levels of CF-301. […] Similarly, cell wall-labeling with vancomycin occurs within 5 minutes in the presence of CF-301 (⅛^th MIC) versus 30 minutes without CF-301 (FIG. 20B). For both antibiotics, the labeling was first observed at bacterial division planes.

Assay [4] has as its system Staphylococcus aureus (MRSA and MSSA strains). As to the kind of experiment: Synergy time-kill assay (6 hours, combination compared to most active single agent). It counts as cell-based. Particulars: ½ MIC PlySs2 or ¼ MIC vancomycin alone, up to 6 hours.
The test system is the same in assay [5]. In words: Time kill assay, single agents at 1×MIC (CLSI). It counts as cell-based. The conditions noted are these: 1×MIC.
The next assay concerns Staphylococcus aureus. In words: MIC, broth microdilution (CLSI M07-A9). The assay is classed as cell-based. (In general: Broth dilution looks for growth in wells or tubes with falling amounts of substance.)
[6] abbreviates: DRSA (n = 8), with reducing agent.

For `CN[C@H](CC(C)C)C(=O)N[C@H]1C(=O)N[C@@H](CC(N)=O)C(=O)N[C@H]2C(=O)N[C@H]3C(=O)N[C@H](C(=O)N[C@H](C(=O)O)c4cc(O)cc(O)c4-c4cc3ccc4O)[C@H](O)c3ccc(c(Cl)c3)Oc3cc2cc(c3O[C@@H]2O[C@H](CO)[C@@H](O)[C@H](O)[C@H]2O[C@H]2C[C@](C)(N)[C@H](O)[C@H](C)O2)Oc2ccc(cc2Cl)[C@H]1O` [Vancomycin, vancomycin], the “24 hour survival rate” value in the assay with S. aureus [1] is listed as 20%. Further, in the assay on S. aureus [1], the “72 hour survival rate” value came out at 3%. The MIC was determined as 4 µg/mL in assay [2] (read-out: vancomycin MIC, ending values, passaged with PlySs2 (8 ug/ml) plus vancomycin, 25 day) and 16 µg/mL (≈ 11 µM) in assay [2] (read-out: vancomycin MIC, ending values, three vancomycin-only cultures, 25-day study). Also, the “antibiotic MIC, starting value” in assay [2] (before serial passage) worked out at 1 µg/mL. Moreover, the “increase of vancomycin MIC” value in assay [2] (passaged with PlySs2 (8 ug/ml) plus vancomycin) was 2 to 4 fold; in assay [2] (vancomycin-only cultures, 25-day study) it was 16 fold. For the same compound, the “vancomycin MIC, ending values” in assay [2] (passaged with PlySs2 (8 ug/ml) plus vancomycin, 25 day) is 2 µg/mL. Moreover, the “time to cell wall-labeling with vancomycin” value was at most 5 min in the assay with S. aureus [3] (in the presence of CF-301 (⅛^th MIC)) and 30 min in the assay on S. aureus [3] (without CF-301). The “effectiveness alone at sub-MIC doses” value in assay [4] is “ineffective or poorly effective”. The “kill within 6 hours” value in assay [5] amounted to 2 log10. The MIC90 in the assay with Staphylococcus aureus (setting [6]) was 1; in the assay on Staphylococcus aureus (LRSA (n = 5), with reducing agent), 1; in the assay with Staphylococcus aureus (MRSA (n = 45), with reducing agent), 1; against Staphylococcus aureus (MSSA (n-28), with reducing agent) it was 1; against Staphylococcus aureus (Staphylococcus aureus), 0.7 µM (≈ 1.01 µg/mL); against Staphylococcus aureus (Staphylococcus aureus, MRSA), 0.7 µM (≈ 1.01 µg/mL). Moreover, the MIC90 was 0.7 µM (≈ 1.01 µg/mL) in the assay on Staphylococcus aureus (Staphylococcus aureus, MSSA); 2.7 µM (≈ 3.91 µg/mL) against Staphylococcus aureus (Staphylococcus aureus, VISA); over 10.6 µM in the assay on Staphylococcus aureus (Staphylococcus aureus, VRSA); 4 with Staphylococcus aureus (VISA (n = 10), with reducing agent); over 16 against Staphylococcus aureus (VRSA (n = 14), with reducing agent). For the same compound, the “MIC90 [uM]” value in the assay on Staphylococcus aureus (setting [6]) came to 0.7 µM (≈ 1.01 µg/mL).
